This note sets out measurements from publication PMC8286840, “Identifying SARS-CoV-2 antiviral compounds by screening for small molecule inhibitors of Nsp3 papain-like protease” (Biochemical Journal, 2021).

Counter-ions that a name gives are not always drawn. Like-named read-outs stand apart in the source and are kept apart here. Where a SMILES comes first, the peptide text is derived from it.

The target in assay [1] is T1, SARS-CoV-2 PLpro (nsp3 1564–1878) (Severe acute respiratory syndrome coronavirus 2, UniProt P0DTD1). The assay is described as follows: biochemical. Set-up: FRET-quenched peptide (Pro3) cleavage by PLpro, 10 min pre-incubation, slope over 20 min, normalised to no-compound control. The following applies: read-out: % of control remaining.
Assay [2] has as its target T1, SARS-CoV-2 PLpro (nsp3 1564–1878). Nature of the assay: biochemical. Set-up: FRET-quenched peptide (Pro3) cleavage by PLpro, 10 min pre-incubation, slope over 20 min, normalised to no-compound control. The following applies: read-out: % of control remaining. This is another data set of the same source.

Consider `O=C1Cc2cc(CCN3CCN(c4nsc5ccccc45)CC3)c(Cl)cc2N1` [Ziprasidone HCl], for which, in assay [1] (Well no.=4859, low concentration screen), the remaining activity at 1.25 µM was found to be 92.1%. Further, the remaining activity at 3.75 µM in assay [2] (Well no.=4859, high concentration screen) was 93.7%.

With `C[C@H](CSC(=O)c1ccccc1)C(=O)N1C[C@@H](Sc2ccccc2)C[C@H]1C(=O)O` [Zofenopril calcium], the remaining activity at 1.25 µM in assay [1] (Well no.=5564, low concentration screen) worked out at 102%. Further, the remaining activity at 3.75 µM in assay [2] (Well no.=5564, high concentration screen) was determined as 103%.

`O=P(O)(O)C(O)(Cn1ccnc1)P(=O)(O)O` [Zoledronic acid]: the remaining activity at 1.25 µM in assay [1] (Well no.=1881, low concentration screen) turned out to be 100%; in assay [1] (Well no.=5578, low concentration screen), 102%. The remaining activity at 3.75 µM is 97.1% in assay [2] (Well no.=1881, high concentration screen) and 98.1% in assay [2] (Well no.=5578, high concentration screen).

Consider `CN(C)CCc1c[nH]c2ccc(C[C@H]3COC(=O)N3)cc12` [Zolmitriptan], for which the remaining activity at 1.25 µM in assay [1] (Well no.=1885, low concentration screen) came to 98%; in assay [1] (Well no.=6507, low concentration screen), 98.3%. Further, the remaining activity at 3.75 µM is 97.6% in assay [2] (Well no.=1885, high concentration screen) and 98.2% in assay [2] (Well no.=6507, high concentration screen).

As for `NS(=O)(=O)Cc1noc2ccccc12` [Zonisamide sodium], the remaining activity at 1.25 µM in assay [1] (Well no.=1390, low concentration screen) stood at 98.4%. The remaining activity at 3.75 µM in assay [2] (Well no.=1390, high concentration screen) is 100%.

Regarding `NS(=O)(=O)Cc1noc2ccccc12` [Zonisamide], the remaining activity at 1.25 µM in assay [1] (Well no.=1879, low concentration screen) turned out to be 94.7%. Moreover, the remaining activity at 3.75 µM in assay [2] (Well no.=1879, high concentration screen) was determined as 96.4%.

Take `O=C(O)Cc1nn(Cc2nc3cc(C(F)(F)F)ccc3s2)c(=O)c2ccccc12` [Zopolrestat]: in assay [1] (Well no.=5825, low concentration screen), the remaining activity at 1.25 µM was 98.5%. Also, the remaining activity at 3.75 µM in assay [2] (Well no.=5825, high concentration screen) was determined as 98.9%.

`CO[C@H]1C[C@@H]2CC[C@@H](C)[C@@](O)(O2)C(=O)C(=O)N2CCCC[C@H]2C(=O)O[C@H]([C@H](C)C[C@@H]2CC[C@H](n3cnnn3)[C@H](OC)C2)CC(=O)[C@H](C)/C=C(\C)[C@@H](O)[C@@H](OC)C(=O)[C@H](C)C[C@H](C)/C=C/C=C/C=C/1C` [Zotarolimus]: the remaining activity at 1.25 µM in assay [1] (Well no.=8308, low concentration screen) worked out at 90.2%. Besides, the remaining activity at 3.75 µM in assay [2] (Well no.=8308, high concentration screen) is 91.2%.

As for `CCCCC[C@H](O)CC(=O)CCc1ccc(O)c(OC)c1` [[6]-Gingerol], the remaining activity at 1.25 µM in assay [1] (Well no.=6162, low concentration screen) is 96.6%. For the same compound, the remaining activity at 3.75 µM in assay [2] (Well no.=6162, high concentration screen) came out at 99.6%.

For the compound `CC(C)C[C@H](NC(=O)[C@H](Cc1ccccc1)NC(=O)CNC(=O)[C@@H](C)NC(=O)[C@@H](N)Cc1ccc(O)cc1)C(=O)O` [[D-Ala2]leucine-enkephalin], the remaining activity at 1.25 µM in assay [1] is 101%. In assay [2], the remaining activity at 3.75 µM stood at 98.6%.

For `CC[C@H](C)[C@H](NC(=O)[C@@H]1CCCN1C(=O)[C@H](Cc1cnc[nH]1)NC(=O)[C@@H](NC(=O)[C@H](Cc1ccc(O)cc1)NC(=O)[C@@H](NC(=O)[C@H](CCCN=C(N)N)NC(=O)CNC)C(C)C)[C@@H](C)CC)C(=O)O` [[Sar1, Ile8]-Angiotensin II (TFA)], the remaining activity at 1.25 µM in assay [1] (Well no.=7588, low concentration screen) is 96%. For the same compound, in assay [2] (Well no.=7588, high concentration screen), the remaining activity at 3.75 µM came out at 92%.

Take `C[C@H](N)C(=O)O` [_-Alanine]: the remaining activity at 1.25 µM in assay [1] (Well no.=7747, low concentration screen) was determined as 103%. Also, the remaining activity at 3.75 µM in assay [2] (Well no.=7747, high concentration screen) is 107%.

Consider `C[C@H](NC(=O)[C@@H](N)CCC(=O)O)C(=O)O` [_-L-Glutamyl-L-alanine] (H-Glu-Ala-OH), for which the remaining activity at 1.25 µM in assay [1] (Well no.=7750, low concentration screen) came out at 105%. For the same compound, the remaining activity at 3.75 µM in assay [2] (Well no.=7750, high concentration screen) was found to be 104%.

Regarding `CC1(C)CCC2=C(O1)c1ccccc1C(=O)C2=O` [_-Lapachone], in assay [1] (Well no.=6166, low concentration screen), the remaining activity at 1.25 µM worked out at 104%. For the same compound, the remaining activity at 3.75 µM in assay [2] (Well no.=6166, high concentration screen) was determined as 79.2%.

As for `NC(=O)c1ccc[n+]([C@@H]2O[C@H](COP(=O)([O-])O)[C@@H](O)[C@H]2O)c1` [_-Nicotinamide mononucleotide], in assay [1] (Well no.=7735, low concentration screen), the remaining activity at 1.25 µM was found to be 102%. For the same compound, the remaining activity at 3.75 µM in assay [2] (Well no.=7735, high concentration screen) came out at 105%.

As to `Nc1ncnc2c1ncn2[C@@H]1O[C@H](COP(=O)(O)CP(=O)(O)OP(=O)(O)O)[C@@H](O)[C@H]1O` [alpha,beta-Methylene adenosine 5'-triphosphate dilithium], the remaining activity at 1.25 µM in assay [1] (Well no.=932, low concentration screen) turned out to be 101%. Moreover, in assay [2] (Well no.=932, high concentration screen), the remaining activity at 3.75 µM is 98.2%.

Turning to `NC(N)=N[C@@H](CCC(=O)O)C(=O)O` [alpha-Guanidinoglutaric acid], the remaining activity at 1.25 µM in assay [1] (Well no.=669, low concentration screen) was found to be 93.5%. Also, the remaining activity at 3.75 µM in assay [2] (Well no.=669, high concentration screen) was 96.1%.

As for `CN1[C@@H](CC(=O)c2ccccc2)CCC[C@H]1C[C@H](O)c1ccccc1` [alpha-Lobeline hydrochloride], the remaining activity at 1.25 µM in assay [1] (Well no.=1025, low concentration screen) is 98.8%. Also, the remaining activity at 3.75 µM in assay [2] (Well no.=1025, high concentration screen) turned out to be 102%.

`CC(N)Cc1c[nH]c2ccc(O)cc12` (stereo not drawn) [alpha-Methyl-5-hydroxytryptamine maleate]: in assay [1] (Well no.=895, low concentration screen), the remaining activity at 1.25 µM amounted to 106%. Also, the remaining activity at 3.75 µM in assay [2] (Well no.=895, high concentration screen) came out at 106%.

Turning to `Nc1cc(-c2ccncc2)c[nH]c1=O` [amrinone], the remaining activity at 1.25 µM in assay [1] (Well no.=2146, low concentration screen) is 102%. In assay [2] (Well no.=2146, high concentration screen), the remaining activity at 3.75 µM came to 100%.

Consider `O=C(OCOC(=O)[C@H]1CCCN1C(=O)CCCCC(=O)N1CCC[C@@H]1C(=O)OCOC(=O)OC1CCOCC1)OC1CCOCC1` [amyloid P-IN-1], for which the remaining activity at 1.25 µM in assay [1] (Well no.=7788, low concentration screen) stood at 103%. In addition, the remaining activity at 3.75 µM in assay [2] (Well no.=7788, high concentration screen) was found to be 105%.

Take `N[C@@H](CCl)C(=O)O` [beta-Chloro-L-alanine hydrochloride]: in assay [1] (Well no.=142, low concentration screen), the remaining activity at 1.25 µM worked out at 103%. Moreover, in assay [2] (Well no.=142, high concentration screen), the remaining activity at 3.75 µM was 105%.

On to `C[C@]12CC[C@@H]3c4ccc(O)cc4CC[C@H]3[C@@H]1CC[C@@H]2O` [beta-Estradiol], for which the remaining activity at 1.25 µM in assay [1] (Well no.=511, low concentration screen) was found to be 107%. In addition, in assay [2] (Well no.=511, high concentration screen), the remaining activity at 3.75 µM was determined as 104%.

With `O=C(/C=C/c1ccc(O)cc1)CC(=O)/C=C/c1ccc(O)cc1` [bis-demethoxycurcumin], the remaining activity at 1.25 µM in assay [1] (Well no.=4089, low concentration screen) was 98.7%. Moreover, in assay [2] (Well no.=4089, high concentration screen), the remaining activity at 3.75 µM came out at 101%.

In the case of `Nc1ncnc2c1ncn2[C@@H]1O[C@@H]2CO[P@@](=O)(O)O[C@H]3[C@@H](O)[C@H](n4cnc5c(N)ncnc54)O[C@@H]3CO[P@@](=O)(O)O[C@H]2[C@H]1O` [c-di-AMP], the remaining activity at 1.25 µM stood at 91.4% in assay [1] (Well no.=7914, low concentration screen) and 104% in assay [1] (Well no.=8703, low concentration screen). Also, the remaining activity at 3.75 µM in assay [2] (Well no.=7914, high concentration screen) turned out to be 90.2%; in assay [2] (Well no.=8703, high concentration screen) it was 102%.

`OCCN1CCN(CC/C=C2/c3ccccc3Sc3ccc(C(F)(F)F)cc32)CC1` [cis-(Z)-Flupenthixol dihydrochloride]: the remaining activity at 1.25 µM in assay [1] (Well no.=617, low concentration screen) was found to be 99.6%. Besides, the remaining activity at 3.75 µM in assay [2] (Well no.=617, high concentration screen) is 98.7%.

Regarding `O=C(O)[C@@H]1C[C@H](C(=O)O)N1` [cis-Azetidine-2,4-dicarboxylic acid], in assay [1] (Well no.=20, low concentration screen), the remaining activity at 1.25 µM came out at 101%. Further, in assay [2] (Well no.=20, high concentration screen), the remaining activity at 3.75 µM stood at 99.7%.

Turning to `CCn1nc(C)cc1C(=O)Nc1nc2cc(C(N)=O)cc(OC)c2n1C/C=C/Cn1c(NC(=O)c2cc(C)nn2CC)nc2cc(C(N)=O)cc(OCCCN3CCOCC3)c21` [diABZI STING agonist-1 (trihydrochloride)], the remaining activity at 1.25 µM in assay [1] (Well no.=8553, low concentration screen) is 110%. The remaining activity at 3.75 µM in assay [2] (Well no.=8553, high concentration screen) stood at 102%.

For the compound `CCCCCCCCCCCCCCCCn1cc[n+](Cc2ccccc2)c1C` [eEF-2 Kinase Inhibitor, NH125], the remaining activity at 1.25 µM in assay [1] (Well no.=2790, low concentration screen) was 102%. Further, the remaining activity at 3.75 µM in assay [2] (Well no.=2790, high concentration screen) was 108%.
